In PMC4579270, “Identification and Characterization of an Irreversible Inhibitor of CDK2” (Chemistry & Biology, 2015):
Where two headings read alike, the source gives them in different places.

Tests used:
Experiment in all cases: Dundee kinase screen re-test (standard format and 4 hour pre-incubation)
Assay type in all cases: biochemical
[1] = biological target: T1, Aurora A (Homo sapiens, UniProt O14965)
T1 sequence (O14965 1-403): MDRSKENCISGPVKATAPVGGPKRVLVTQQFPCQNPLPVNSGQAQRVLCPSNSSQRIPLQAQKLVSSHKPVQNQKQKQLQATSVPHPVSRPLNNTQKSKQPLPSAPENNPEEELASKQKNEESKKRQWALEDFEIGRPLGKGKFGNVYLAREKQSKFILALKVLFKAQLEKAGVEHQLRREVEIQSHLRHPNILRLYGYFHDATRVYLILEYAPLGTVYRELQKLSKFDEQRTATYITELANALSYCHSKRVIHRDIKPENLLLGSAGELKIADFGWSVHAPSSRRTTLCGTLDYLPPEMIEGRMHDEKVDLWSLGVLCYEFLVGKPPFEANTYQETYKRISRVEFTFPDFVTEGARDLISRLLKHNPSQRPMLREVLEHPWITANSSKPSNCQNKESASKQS
Protocol: (§1) Prior to determining its cellular activity, we carried out a screen to assess its selectivity against a panel of 131 protein kinases under conditions that would not distinguish between a reversible or irreversible mode of action. […] These 13 kinases and 29 additional kinases, selected for their known sensitivity to other inhibitors within the purine series, were then tested in a modified screening format in which the assay was repeated following a 4-hr pre-incubation (Table S3B). […] However, conformational flexibility around the active site may promote such an interaction with a residue from another part of the structure ([Martin et al., 2012]).
(§2) Table S3, Related to Figure 4. NCL-0006300 protein kinase selectivity. (A) NU6300 was tested at a single concentration of 1µM against 131 protein kinases present in a Dundee protein kinase screen (Bain et al., 2007). Values given are % activity remaining and are the average of duplicate measurements: 0-25% (red), 26-50% (yellow), 51-80% (black) and above 81% (green). The kinase domain sequences (as defined by UniProt) of […]
(§3) have a lysine residue at a position close to CDK2 Lys88 or Lys89. However, in the structure of tyrosine-protein kinase BTK (PDB ID: 3GEN) the residue equivalent to CDK2 Asp86 is Cys481 and therefore there is the potential for a covalent adduct to be formed through this side chain. Ephrin type-B receptor 3 (UniProt entry P54753) also encodes a cysteine residue (Cys717) that by sequence alignment would be predicted to be close to the CDK2 lysine pair. (B) Selected kinases were re-tested in the Dundee kinase screen against NU6300 at a single concentration of 0.5 µM both in the standard assay format and following a 4 hour pre-incubation in the presence of NU6300. Kinases which have very low activity after the 4 hour incubation so that results might not be wholly reliable are boxed in salmon. Kinases where the activity after a 4 hour pre-incubation is < 50% that in the standard assay format are highlighted in red.

[2] = biological target: IRAK1 (Homo sapiens, UniProt P51617); conditions: IRAK1, 0.5µM
Protocol: as §1, §2, §3

[3] = biological target: Lck (Homo sapiens, UniProt P06239)
Protocol: as §1, §2, §3

[4] = biological target: T2, MST2 (Homo sapiens, UniProt Q13188); conditions: for remaining activity at 0.5 µM: MST2, 0.5µM
T2 sequence (Q13188 1-491): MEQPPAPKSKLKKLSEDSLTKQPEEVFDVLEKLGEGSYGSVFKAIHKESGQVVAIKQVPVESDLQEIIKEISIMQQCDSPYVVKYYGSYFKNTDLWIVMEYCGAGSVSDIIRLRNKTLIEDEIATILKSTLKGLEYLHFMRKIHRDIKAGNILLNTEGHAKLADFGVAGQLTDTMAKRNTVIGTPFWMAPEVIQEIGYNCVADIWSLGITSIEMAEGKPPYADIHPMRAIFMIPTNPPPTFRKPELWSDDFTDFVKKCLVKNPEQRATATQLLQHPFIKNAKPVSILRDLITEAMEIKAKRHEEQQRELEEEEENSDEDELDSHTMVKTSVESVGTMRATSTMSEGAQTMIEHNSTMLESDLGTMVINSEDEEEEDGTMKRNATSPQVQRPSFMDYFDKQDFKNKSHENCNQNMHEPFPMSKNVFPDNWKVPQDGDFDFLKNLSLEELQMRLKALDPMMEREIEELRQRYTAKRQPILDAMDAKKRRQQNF
Protocol: as §1, §2, §3

[5] = biological target: T3, NUAK1 (Homo sapiens, UniProt O60285); conditions: NUAK1, 0.5µM
T3 sequence (O60285 1-661): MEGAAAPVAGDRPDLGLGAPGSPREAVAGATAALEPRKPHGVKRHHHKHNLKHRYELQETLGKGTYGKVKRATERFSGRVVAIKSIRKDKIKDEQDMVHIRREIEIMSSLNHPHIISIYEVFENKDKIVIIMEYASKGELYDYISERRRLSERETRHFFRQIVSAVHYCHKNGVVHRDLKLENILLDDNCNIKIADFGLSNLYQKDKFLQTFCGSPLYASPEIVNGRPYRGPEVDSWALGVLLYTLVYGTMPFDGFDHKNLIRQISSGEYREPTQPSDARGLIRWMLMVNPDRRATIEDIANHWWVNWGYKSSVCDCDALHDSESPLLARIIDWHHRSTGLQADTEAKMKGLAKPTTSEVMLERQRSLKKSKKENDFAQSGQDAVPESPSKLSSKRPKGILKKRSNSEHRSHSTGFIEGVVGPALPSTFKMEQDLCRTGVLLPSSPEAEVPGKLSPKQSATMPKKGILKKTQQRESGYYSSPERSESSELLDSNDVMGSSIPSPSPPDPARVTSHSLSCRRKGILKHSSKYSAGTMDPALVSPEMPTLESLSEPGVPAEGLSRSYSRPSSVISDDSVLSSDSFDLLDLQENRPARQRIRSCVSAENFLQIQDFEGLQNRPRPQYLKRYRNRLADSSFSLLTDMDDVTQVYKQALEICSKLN
Protocol: as §1, §2, §3

[6] = biological target: PRK2 (Homo sapiens, UniProt Q16513); conditions: PRK2, 0.5µM
Protocol: as §1, §2, §3

[7] = 4hr RT preincubation, read-out: %Remaining activity at 0.5µM NU6300 - 4hr RT preincubation
[8] = usual format, read-out: %Remaining activity at 0.5µM NU6300 - Usual assay format

Sequence of PRK2 (Q16513 whole entry): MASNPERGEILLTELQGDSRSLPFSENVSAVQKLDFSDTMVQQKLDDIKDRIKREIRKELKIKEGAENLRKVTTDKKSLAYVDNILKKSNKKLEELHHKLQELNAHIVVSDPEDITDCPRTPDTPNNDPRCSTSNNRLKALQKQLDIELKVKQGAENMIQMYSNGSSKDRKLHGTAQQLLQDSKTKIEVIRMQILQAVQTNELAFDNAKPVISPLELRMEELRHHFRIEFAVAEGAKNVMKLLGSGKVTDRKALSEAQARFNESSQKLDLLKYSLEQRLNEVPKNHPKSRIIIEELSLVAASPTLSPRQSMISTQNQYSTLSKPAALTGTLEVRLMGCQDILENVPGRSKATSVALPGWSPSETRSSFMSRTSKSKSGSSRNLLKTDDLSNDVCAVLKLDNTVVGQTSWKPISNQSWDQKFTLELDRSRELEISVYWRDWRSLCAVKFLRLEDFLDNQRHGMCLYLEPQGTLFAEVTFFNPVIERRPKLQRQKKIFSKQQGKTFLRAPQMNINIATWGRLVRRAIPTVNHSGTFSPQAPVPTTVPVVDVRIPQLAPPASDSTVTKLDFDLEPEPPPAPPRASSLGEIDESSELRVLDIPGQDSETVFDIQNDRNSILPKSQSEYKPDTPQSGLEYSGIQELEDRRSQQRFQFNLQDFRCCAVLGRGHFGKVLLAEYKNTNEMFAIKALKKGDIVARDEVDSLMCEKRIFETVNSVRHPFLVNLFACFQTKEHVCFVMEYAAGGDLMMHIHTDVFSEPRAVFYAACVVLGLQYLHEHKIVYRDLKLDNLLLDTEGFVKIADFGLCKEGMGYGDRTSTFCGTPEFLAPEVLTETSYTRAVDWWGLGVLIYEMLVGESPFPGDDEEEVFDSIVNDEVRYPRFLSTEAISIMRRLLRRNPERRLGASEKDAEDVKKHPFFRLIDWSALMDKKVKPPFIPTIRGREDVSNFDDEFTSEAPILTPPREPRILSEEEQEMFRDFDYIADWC
Sequence of IRAK1 (P51617 whole entry): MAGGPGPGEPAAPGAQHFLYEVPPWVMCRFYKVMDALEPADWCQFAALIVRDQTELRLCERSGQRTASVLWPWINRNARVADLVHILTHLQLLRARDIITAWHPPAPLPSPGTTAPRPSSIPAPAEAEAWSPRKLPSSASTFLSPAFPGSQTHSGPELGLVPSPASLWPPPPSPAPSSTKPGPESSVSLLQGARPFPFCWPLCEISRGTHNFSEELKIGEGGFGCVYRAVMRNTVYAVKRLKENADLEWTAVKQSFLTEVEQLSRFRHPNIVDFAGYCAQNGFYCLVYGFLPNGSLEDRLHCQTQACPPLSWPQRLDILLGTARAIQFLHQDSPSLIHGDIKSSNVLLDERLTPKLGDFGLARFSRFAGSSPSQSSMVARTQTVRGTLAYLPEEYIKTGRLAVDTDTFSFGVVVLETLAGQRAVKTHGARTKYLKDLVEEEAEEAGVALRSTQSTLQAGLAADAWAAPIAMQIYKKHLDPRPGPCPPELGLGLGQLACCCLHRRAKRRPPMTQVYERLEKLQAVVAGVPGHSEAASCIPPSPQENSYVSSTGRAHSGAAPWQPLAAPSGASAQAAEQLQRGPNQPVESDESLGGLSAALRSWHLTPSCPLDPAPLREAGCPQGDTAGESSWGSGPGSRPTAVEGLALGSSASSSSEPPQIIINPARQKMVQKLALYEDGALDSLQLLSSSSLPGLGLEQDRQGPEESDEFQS
Sequence of Lck (P06239 whole entry): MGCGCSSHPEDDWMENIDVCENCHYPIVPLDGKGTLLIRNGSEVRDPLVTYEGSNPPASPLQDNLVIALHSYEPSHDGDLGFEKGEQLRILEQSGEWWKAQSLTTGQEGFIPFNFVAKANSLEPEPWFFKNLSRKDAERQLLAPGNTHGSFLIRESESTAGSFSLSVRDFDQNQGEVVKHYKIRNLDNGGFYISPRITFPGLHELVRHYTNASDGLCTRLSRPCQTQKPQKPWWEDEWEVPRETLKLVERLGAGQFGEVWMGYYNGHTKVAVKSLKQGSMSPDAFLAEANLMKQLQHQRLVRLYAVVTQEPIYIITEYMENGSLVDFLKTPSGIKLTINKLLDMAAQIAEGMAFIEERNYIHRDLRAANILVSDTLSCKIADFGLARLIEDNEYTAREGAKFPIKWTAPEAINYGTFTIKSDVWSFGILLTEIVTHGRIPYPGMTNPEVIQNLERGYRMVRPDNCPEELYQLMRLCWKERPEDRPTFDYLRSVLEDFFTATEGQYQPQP

C=CS(=O)(=O)c1ccc(Nc2nc(OCC3CCCCC3)c3nc[nH]c3n2)cc1 [NU6300, 6-(cyclohexylmethoxy)-N-(4-(vinylsulfonyl)phenyl)-9H-purin-2-amine]
remaining activity at 0.5 µM [1, 7]: 6%
remaining activity at 0.5 µM [1, 8]: 26%
additional loss of activity after pre-incubation ([1]; 4-hr pre-incubation vs usual format, 0.5 µM): > 50%
remaining activity at 0.5 µM [2, 7]: 38%
remaining activity at 0.5 µM [2, 8]: 64%
remaining activity at 0.5 µM [3, 7]: 60%
remaining activity at 0.5 µM [3, 8]: 67%
remaining activity at 0.5 µM [4, 7]: 11%
remaining activity at 0.5 µM [4, 8]: 38%
additional loss of activity after pre-incubation ([4]; Mst2, 4-hr pre-incubation vs usual format, 0.5 µM): > 50%
remaining activity at 0.5 µM [5, 7]: 18%
remaining activity at 0.5 µM [5, 8]: 12%
remaining activity at 0.5 µM [6, 7]: 84%
remaining activity at 0.5 µM [6, 8]: 65%
